How the values were obtained:
Type in all cases: in vivo
[1] = test system: male rats of Wistar strain; assay: Acute oral toxicity (lethality) in rats; conditions: 10 male Wistar rats
male Wistar rats = assay: Randall & Selitto method (analgesic effect, brewer's yeast inflamed paw); conditions: Rattus norvegicus, po, 2 hours after subplantar 20 % brewer's yeast, pain threshold every 1 hour for 4 hours, read-out: Analgesic action (ED50) Randall & Selitto method
Protocol: (3) Randall & Selitto Method [Randall and Selitto: Arch. Int. Pharmacodyn. 111, 409(1957)]
6 male Wistar rats weighing 90 - 110 g were used in testing each compound. The pain threshold was measured with an analgesic meter (Ugo Basile). The test compounds were adminstered orally 2 hours after the subplantar injection(0.1 ml/rat) of 20 % brewer's yeast suspension into the right hind paw, and the pain threshold was measured every 1 hour for 4 hours.
Animals of which post-drug pain threshold raised more than 50 % as compared with the threshold in control group were regarded as positive for the analgesic activity, and the ED50 values were calculated from the positive percent.

male S.D. rats = assay: Adjuvant-induced arthritic pain (analgesic effect); conditions: Rattus norvegicus, po, Mycobacterium butyricum polyarthritis, pain response every 1 hour for 5 hours, read-out: Analgesic action (ED50) Adjuvant-induced arthritic pain method
Protocol: (4) Adjuvant-induced Arthritic Pain [Kuzuna and Kawai: Chem. Pha^rm. Bull., ^23, 1184(1975)]
6 male S.D. rats weighing 160 - 200 g were used in testing each compound. Polyarthritis was induced by the intradermal injection (0.1 ml/rat) of 0.5 % Mycobacterium butyricum suspension into the distal portion of the tail. The pain stimulus was applied by a gentle flection of the right tarso-tibial joints repeatedly 5 times at intervals 4 to 5 seconds, the vocalization following the pain stimulus was regarded as pain response.

male ddY mice [2] = assay: Acetic acid writhing method (analgesic effect); conditions: Mus musculus, po, 30 minutes before i.p. 0.7 % acetic acid, writhes counted 10 to 20 minutes after injection, read-out: Analgesic action (ED50) Acetic acid writhing method
Protocol: (1) Acetic Acid Writhing Method [Koster, Anderson and De Beer: Fed. Proc., 18, 412(1959)]
10 male ddY mice weighing 19 - 23 g were used in testing each compound. The test compounds were administered orally 30 minutes before in the intraperitoneal injection (0.1 ml/ 10 g ) of 0.7 % acetic acid. The number of writhes were counted in each mouse during a period spanning 10 to 20 minutes after the acetic acid injection.
The percent inhibition was calculated as compared with the number of writhes in the control group, and the ED50 values were calculated from the inhibitory percent.

male ddY mice [3] = assay: Tail pressure method (analgesic effect); conditions: Mus musculus, po, pain threshold raised more than 50 % = positive, measured every 30 minutes for 120 minutes, read-out: Analgesic action (ED50) Tail pressure method
Protocol: (2) Tail Pressure Method [Takagi and Kameyama: Yakugaku Zasshi, 78, 553(1958)]
10 male ddY mice weighing 20 - 25 g were used in testing each compound. The pressure stimulus was applied to the base of the mouse tail. The test compounds were administered orally and the pain threshold was measured every 30 minutes for 120 minutes.
Animals of which post-drug pain threshold raised more than 50 % as compared with its pre-drug threshold were regarded as positive for the analgesic activity, and the ED50 values were calculated from the positive percent.

SMILES: CC(C)CC(=O)n1c2cc(C(F)(F)F)ccc2c2oc(C(=O)N3CCOCC3)cc21 [Example 3, 4-isobutylcarbonyl-2-morpholinocarbonyl-6-trifluoromethyl-furo[3,2-b]indole]
- death ([1]; 2000 mg/kg orally): no death was observed

SMILES: O=C(c1cc2[nH]c3cc(C(F)(F)F)ccc3c2o1)N1CCOCC1 [R: -H, 2-morpholinocarbonyl-6-trifluoromethyl-4H-furo[3,2-b]indole]
- ED50 (male Wistar rats): > 100 mg/kg
- ED50 (male S.D. rats): > 100 mg/kg
- ED50 (male ddY mice [2]): > 100 mg/kg
- ED50 (male ddY mice [3]): > 100 mg/kg

SMILES: CCCCC(CC)C(=O)n1c2cc(C(F)(F)F)ccc2c2oc(C(=O)N3CCOCC3)cc21 (stereo not shown) [Example 1, 4-(2-ethylhexanoyl)-2-morpholinocarbonyl-6-trifluoromethyl-furo-[3,2-b]-indole]
- death ([1]; 1000 mg/kg orally): no death was observed

SMILES: CC(C)OC(=O)n1c2cc(C(F)(F)F)ccc2c2oc(C(=O)N3CCOCC3)cc21 [Example 2, 4-isopropoxycarbonyl-2-morpholinocarbonyl-6-trifluoromethyl-furo-[3,2-b]indole]
- death ([1]; 1000 mg/kg orally): no death was observed

Reference: patent publication EP0104596A2, “Furoindole derivatives” (TAISHO PHARMACEUTICAL CO. LTD, priority 1982, dated 1984)
